Source: US20080234345A1, “METHOD FOR REDUCING OR ALLEVIATING INFLAMMATION IN THE DIGESTIVE TRACT” (Gene Logic Inc., priority 2006, published 2008)

Key:
[1] = system: DSS-induced colitis in Balb/c mice; assay: DSS-induced colitis in Balb/c mice (Example 7); type: in vivo; settings: s.c. b.i.d., GL1001 300 mg/kg, sulfasalazine 150 mg/kg
Experimental: A study was designed with six groups of Balb/c mice: naïve control, DSS followed by vehicle, DSS followed by GL1001 30 mg/kg/day, DSS followed by GL1001 100 mg/kg/day, DSS followed by GL1001 300 mg/kg/day, and DSS followed by sulfasalazine 150 mg/kg/day. Administration of DSS was via drinking water, from day 1 to day 6 of the study. […] Administration of vehicle, GL1001 and sulfasalazine was subcutaneous, twice daily, from day 6 until termination of the study (day 16).
Body weight of each animal was measured at days 1, 3 and 5 (pre-initiation of GL1001 or sulfasalazine treatment) and at days 7, 9, 11 and 13 (post-initiation of GL1001 or sulfasalazine treatment). On these same days, disease activity measurements were recorded, including: • (a) rectal prolapse (0=no prolapse, 1=partial prolapse, 2=moderate prolapse, 3=full prolapse); • (b) stool consistency (0=solid pellet, 1=semi-solid, 2=soft stool, 3=diarrhea); and • (c) fecal occult blood (0=no blood present, 1=occult blood, 2=gross blood).
At termination of the study, colon length was determined and histological analysis was conducted as in Example 6.

[2] = system: UC; settings: cited from earlier work
[3] = system: NF-κB; settings: in CD; Guidi et al. (2005); cited from earlier work
[4] = system: CD; settings: cited from earlier work

| Molecule | fecal occult blood ([1]; day 7) | stool consistency ([1]; day 7) | percentage weight loss ([1]; day 9) | rectal prolapse ([1]; day 9) | distal colon crypt score [1] | distal colon inflammation score [1] | distal colon total histopathology score [1] | reduction in colon length [1] | response rates [2] | NF-κB activity [3] | induction of remission rate ([4]; CD, after a single dose) [%] | response rate ([4]; CD, after a single dose) [%] | fistula responds (closes), patients ([4]; fistulizing CD) [%] | patients who develop an abscess ([4]; in vivo) [%] |
| --- | --- | --- | --- | --- | --- | --- | --- | --- | --- | --- | --- | --- | --- | --- |
| O=C(O)c1cc(/N=N/c2ccc(S(=O)(=O)Nc3ccccn3)cc2)ccc1O [sulfasalazine, reference compound] | reduces | No significant effect | No significant effect | reduces | reduces | reduces | reduces | inhibits reduction | – | – | – | – | – | – |
| Infliximab: anti-TNFα monoclonal antibody | – | – | – | – | – | – | – | – | 50-70% | decrease | 50 | 80 | 68 | 12 |
